pIC50: −log10 of the molar value.
How the values were obtained:
RD cells [1] = test: Cytotoxicity assay (CellTiter-Glo 2.0) on RD cells; assay type: cell-based, Human; conditions: for pIC50: Homo sapiens
Procedure, shortened: (§1)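 Viability was measured as ATP-based bioluminescence (CellTiter-Glo 2.0) after compound treatment, with medium and exposure time set per cell line. Relative IC50 values were then calculated.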

4T1 cells [2] = test: Cytotoxicity assay (CellTiter-Glo 2.0) on 4T1 cells; assay type: cell-based, Mouse; conditions: incubation 2 days; for pIC50: Mus musculus, 48 h
Procedure, shortened: as §1

MDA-MB-231 cells [3] = test: Cytotoxicity assay (CellTiter-Glo 2.0) on MDA-MB-231 cells; assay type: cell-based, Human; conditions: incubation 3 days; for pIC50: Homo sapiens, 72 h
Procedure, shortened: as §1

EoL-1 cells = test: Cytotoxicity assay (CellTiter-Glo 2.0) on EoL-1 cells; assay type: cell-based, Human; conditions: incubation 1 day; for pIC50: Homo sapiens, EOL1, 24 h
Procedure, shortened: as §1

HUVECs = test: Tube formation assay (anti-angiogenic activity); assay type: cell-based, human; conditions: incubation 16 to 18 hours; for pIC50: Homo sapiens, HUVEC
Procedure, shortened: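 HUVECs plated at 5000 cells/well on reduced growth factor basement membrane matrix, then exposed to compounds for 16 to 18 hours at 37°C. Cells stained with calcein-AM; tube networks imaged by confocal fluorescence microscopy and quantified.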

MDA-MB-231 cells [4] = test: Scratch (wound healing) assay, cell migration; assay type: cell-based, Human; conditions: 24 hours, Figure 1
Description: Cell migration is involved in several pathological cancer processes such as tumor invasion, neoangiogenesis and metastasis. Scratch (or wound healing) assay is a method to study two-dimensional cell migration in vitro. It is based on the observation that cells growing in a monolayer migrate to reestablish cell contacts after a mechanical scratch wound.
The MDA-MB-231 cells were seeded into a 24-well plate and grown to confluent density. A scrape was made in each well using a pipette tip. Then, the cells monolayers were incubated for 2 hours with 5 µg/ml mitomycin C to stop cell proliferation. The cells were treated with the compounds to be tested for 24 hours. The cells were stained using CellMask Green actin tracking stain (cat.no. A57246 from Fisher Scientific) at time zero and at endpoint. Pictures were acquired using a fluorescence microscope (IXM from Molecular Device). The scratch area was measured with the ImageJ software. The recovery of the scratch area was calculated as a percentage of the scratch area at time zero.

4T1 cells [5] = test: Epithelial-mesenchymal transition marker expression by qRT-PCR; assay type: cell-based, Mouse; parameters: key: ↗: increased expression; ↘: decreased expression; =: unchanged expression levels; conditions: 24 hours, expression normalized against RPL13
Text: The epithelial-mesenchymal transition (hereafter "EMT") is a process by which epithelial cells lose their cell polarity and cell-cell adhesion while gaining migratory and invasive properties to become mesenchymal stem cells. EMT is commonly measured by quantifying both epithelial and mesenchymal marker's expression by quantitative reverse-transcription polymerase chain reaction (hereafter "qRT-PCR"). EMT inhibition is observed when epithelial markers are stable or increased while mesenchymal markers are decreased.
4T1 cells were treated with compounds to be tested or DMSO for 24 hours. 4T1 cells were then harvested directly in NucleoZol lysis buffer (cat. no. 740404.200 from Macherey-Nagel), according to the manufacturer's instructions. Total RNA was extracted using the NucleoSpin RNA set for NucleoZol (cat. no. 740406.50 from Macherey-Nagel). The quantity and purity of RNA was determined using a Quickdrop (Molecular Devices). RT-PCR was performed on 500 ng total RNA using iScript gDNA clear cDNA synthesis Kit (cat.no. 1725035 from Biorad). The qPCR was run on a QuantStudio 5 real time thermocycler (Applied Biosystems), with PowerUp SYBR Green Master Mix (cat.no. A25742 from Fisher Scientific) and the primers listed in Table 16.
Expression data of EMT markers have been normalized against expression data of the housekeeping gene RPL13.

4T1 cells [6] = test: Colony forming (clonogenic) assay; assay type: cell-based, Mouse; conditions: 6 days of treatment, Figure 2
Description: Cancer stem cells are characterized by their ability to undergo virtually unlimited divisions. Colony forming assay (or clonogenic assay) is an in vitro assay designed to assess capability of single cells to grow into large colonies through clonal expansion.
4T1 cells were seeded at a density of 500 cells per well of six-well plates in 4T1 medium. Compounds to be tested were added 24 hours after seeding. After 6 days of treatment, the cells were fixed in 4% PFA and stained with 1% aqueous solution of crystal violet. Pictures of the entire wells were acquired, and the area of the positives colonies was evaluated by ImageJ software (Wayne Rasband; NIH).

RD cells [7] = test: Differentiation of RD cells into myotubes (alpha-actinin staining); assay type: cell-based, Human; conditions: 7 days, Figure 3
Description: RD cells are cancer cells of muscle origin that arose from myogenic precursors that fail to complete muscle differentiation. One strategy to stop their progression is to differentiate them into myotubes.
To allow differentiation, RD cells were seeded at a density of 3500 cells/well in a 384-well plate coated with collagen type I, in DMEM (4,5g/L glucose) with L-Gln (cat.no. 41965-039 from Gibco) supplemented with 5% of knockout serum replacement (cat.no. 10828-028 from Gibco), 1% PenStrep (Gibco), 1% MEM NEAA (Gibco) and 0.1 mM 2-mercaptoethanol (Gibco) (hereafter "K5 medium"). Compounds to be tested were then added onto the cells and incubated for 7 days at 37°C. On day 7, cells were fixed with 4% paraformaldehyde solution and immunostained for α-actinin (cat.no. EA-53 from Sigma, at 1/30000).

Compound | Cytotoxicity (RD cells [1]; 2 day-treatment) | Cytotoxicity (RD cells [1]; 4 day-treatment) | pIC50 (RD cells [1]; 48 h, 2 day-treatment) | pIC50 (RD cells [1]; 96 h, 4 day-treatment) | pIC50 (4T1 cells [2]) | Cytotoxicity (4T1 cells [2]) | pIC50 (MDA-MB-231 cells [3]) | Cytotoxicity (MDA-MB-231 cells [3]) | pIC50 (EoL-1 cells) | Cytotoxicity (EoL-1 cells) | pIC50 (HUVECs) | Angiogenesis inhibition (HUVECs) | migration in the scratch assay (MDA-MB-231 cells [4]) | Epithelial markers E-cadherin (4T1 cells [5]) | Epithelial markers EpCAM (4T1 cells [5]) | Mesenchymal markers Fibronectin (4T1 cells [5]) | Mesenchymal markers Vimentin (4T1 cells [5]) | colony growth (4T1 cells [6]) | differentiation into myotubes (RD cells [7])
CSc1cc(Oc2ccnc3c2OCC(=O)N3)ccc1NC(=O)Nc1cc(C(C)(C)C)nn1-c1ccccc1 [Compound 006, 1-(3-(tert-butyl)-1-phenyl-1H-pyrazol-5-yl)-3-(2-(methylthio)-4-((3-oxo-3,4-dihydro-2H-pyrido[3,2-b][1,4]oxazin-8-yl)oxy)phenyl)urea] | ++ (50% ≤ cytotoxicity < 85%) | ++ (50% ≤ cytotoxicity < 85%) | 5.30 to 6.00 | 5.30 to 6.00 | 5.30 to 6.00 | +++ (cytotoxicity ≥ 85%) | 5.30 to 6.00 | ++ (50% ≤ cytotoxicity < 85%) | 7.00 to 8.00 | +++ (cytotoxicity ≥ 85%) | 6.30 to 7.00 | +++ (angiogenesis inhibition ≥ 80%) | inhibition of their migration | ↗ | ↗ | ↘ | ↘ | inhibition of colony growth | dose-dependent differentiation into myotubes
CC(C)(C)c1cc(NC(=O)Nc2ccc(Oc3ccnc4c3CCC(=O)N4)cc2C(F)(F)F)n(-c2cncc(F)c2)n1 [Compound 016, 1-[5-tert-butyl-2-(5-fluoro-3-pyridyl)pyrazol-3-yl]-3-[4-[(7-oxo-6,8-dihydro-5H-1,8-naphthyridin-4-yl)oxy]-2-(trifluoromethyl)phenyl]urea] | ++ (50% ≤ cytotoxicity < 85%) | ++ (50% ≤ cytotoxicity < 85%) | 5.30 to 6.00 | 5.00 to 5.30 | > 6.00 | +++ (cytotoxicity ≥ 85%) | 5.30 to 6.00 | ++ (50% ≤ cytotoxicity < 85%) | 7.00 to 8.00 | +++ (cytotoxicity ≥ 85%) | > 7.00 | +++ (angiogenesis inhibition ≥ 80%) | inhibition of their migration | ↗ | ↗ | ↘ | ↘ | inhibition of colony growth | 
Cc1ccc(-n2nc(C(C)(C)C)cc2NC(=O)Nc2ccc(Oc3ccnc4c3CCC(=O)N4)cc2C(F)(F)F)cn1 [Compound 017, 1-[5-tert-butyl-2-(6-methyl-3-pyridyl)pyrazol-3-yl]-3-[4-[(7-oxo-6,8-dihydro-5H-1,8-naphthyridin-4-yl)oxy]-2-(trifluoromethyl)phenyl]urea] | ++ (50% ≤ cytotoxicity < 85%) | +++ (cytotoxicity ≥ 85%) | 5.30 to 6.00 | 5.30 to 6.00 | > 6.00 | +++ (cytotoxicity ≥ 85%) | 5.30 to 6.00 | ++ (50% ≤ cytotoxicity < 85%) | 8.00 to 9.00 | ++ (50% ≤ cytotoxicity < 85%) | > 7.00 | +++ (angiogenesis inhibition ≥ 80%) | inhibition of their migration | ↗ | ↗ | ↘ | ↘ | inhibition of colony growth | 
CSc1cc(Oc2ccnc3c2OCC(=O)N3)ccc1NC(=O)Nc1cc(C(C)(C)C)nn1-c1cncc(F)c1 [Compound 018, 1-[5-tert-butyl-2-(5-fluoro-3-pyridyl)pyrazol-3-yl]-3-[2-methylsulfanyl-4-[(3-oxo-4H-pyrido[3,2-b][1,4]oxazin-8-yl)oxy]phenyl]urea] | + (20 % ≤ cytotoxicity < 50%) | ++ (50% ≤ cytotoxicity < 85%) | 5.30 to 6.00 | 5.30 to 6.00 | > 6.00 | +++ (cytotoxicity ≥ 85%) | 5.30 to 6.00 | ++ (50% ≤ cytotoxicity < 85%) | 8.00 to 9.00 | +++ (cytotoxicity ≥ 85%) | > 7.00 | +++ (angiogenesis inhibition ≥ 80%) |  | ↗ | ↗ | ↘ | ↘ |  | dose-dependent differentiation into myotubes
